Measurements taken from ChEMBL document CHEMBL1201862, “PubChem BioAssay data set” (2004).
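Method: 48-hour compound exposure of cells in 96-well plates, five concentrations, linear interpolation of endpoints. Here, GI50 denotes the concentration required for 50% inhibition of growth.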 Calls of active or inactive are those of the source. No stated cut-off is given here; in the data, active = GI50 up to about 1.1 µM and inactive = higher.

Columns and labels:
Test in all cases: growth of human tumour cells (NCI), 48 h
UACC-62 = system: UACC-62
CCRF-CEM = system: CCRF-CEM
SR = system: SR
MOLT-4 = system: MOLT-4
HT-29 = system: HT-29
HCT-116 = system: HCT-116
HOP-62 = system: HOP-62
A549 = system: A549
OVCAR-4 = system: OVCAR-4
OVCAR-8 = system: OVCAR-8
UACC-257 = system: UACC-257
HOP-92 = system: HOP-92
HL-60 = system: HL-60
U-251 = system: U-251
UO-31 = system: UO-31
TK-10 = system: TK-10
SF-295 = system: SF-295
786-0 = system: 786-0
SF-539 = system: SF-539
OVCAR-3 = system: OVCAR-3

Measured: GI50

O=[N+]([O-])c1ccc2nc(=S)[nH]n2c1
inactive: UACC-62 > 100 µM | CCRF-CEM > 100 µM | SR > 100 µM | MOLT-4 > 100 µM | HT-29 > 100 µM | HCT-116 > 100 µM | HOP-62 > 100 µM | A549 > 100 µM | OVCAR-4 > 100 µM | OVCAR-8 > 100 µM | UACC-257 > 100 µM | HOP-92 > 100 µM | HL-60 > 100 µM | U-251 > 100 µM | UO-31 > 100 µM | TK-10 > 100 µM | SF-295 > 100 µM | 786-0 > 100 µM | SF-539 > 100 µM

C/C(=N/O)C1CC=C(S(=O)(=O)c2ccccc2)C1 (stereo not drawn)
inactive: UACC-62 > 10 µM | CCRF-CEM > 100 µM | SR > 100 µM | MOLT-4 > 100 µM | HT-29 > 100 µM | HOP-62 > 100 µM | A549 > 100 µM | OVCAR-3 > 100 µM | OVCAR-4 > 100 µM | OVCAR-8 > 100 µM | UACC-257 > 100 µM | HOP-92 > 100 µM | HL-60 > 100 µM | U-251 > 100 µM | UO-31 > 100 µM | TK-10 > 100 µM | SF-295 > 100 µM | 786-0 > 100 µM | SF-539 > 100 µM

O=C(NCc1cccnc1)NCc1cccnc1
inactive: UACC-62 > 100 µM | SR > 100 µM | HT-29 > 100 µM | HCT-116 > 100 µM | HOP-62 > 100 µM | A549 > 100 µM | OVCAR-3 > 100 µM | OVCAR-4 > 100 µM | OVCAR-8 > 100 µM | UACC-257 > 100 µM | HOP-92 > 100 µM | HL-60 > 100 µM | U-251 > 100 µM | UO-31 > 100 µM | TK-10 > 100 µM | SF-295 > 100 µM | 786-0 > 100 µM | SF-539 > 100 µM

Nc1ncn2c(n1)nc1ccccc12
inactive: UACC-62 > 100 µM | CCRF-CEM > 100 µM | SR > 100 µM | MOLT-4 > 100 µM | HT-29 > 100 µM | HCT-116 > 100 µM | A549 > 100 µM | OVCAR-4 > 100 µM | OVCAR-8 > 100 µM | UACC-257 > 100 µM | HOP-92 37.2 µM | HL-60 > 100 µM | U-251 > 100 µM | UO-31 > 100 µM | TK-10 > 100 µM | SF-295 > 100 µM | 786-0 > 100 µM | SF-539 > 100 µM

Cc1ccc(C(=O)C2=CN=C3C(=O)N(c4ccccc4)N(C)C3(C)C2=N)cc1 (stereo not drawn)
inactive: UACC-62 > 100 µM | CCRF-CEM > 100 µM | SR > 100 µM | MOLT-4 > 100 µM | HCT-116 > 100 µM | A549 > 100 µM | OVCAR-3 > 100 µM | OVCAR-4 > 100 µM | OVCAR-8 > 100 µM | UACC-257 > 100 µM | HOP-92 > 100 µM | HL-60 > 100 µM | U-251 > 100 µM | UO-31 > 100 µM | TK-10 > 100 µM | SF-295 > 100 µM | 786-0 > 100 µM | SF-539 > 100 µM

CC(C)(C)OC(=O)NC1CCCC1C(=O)C1=CCCC1 (stereo not drawn)
inactive: UACC-62 70.1 µM | CCRF-CEM 74.6 µM | SR 90.8 µM | MOLT-4 > 100 µM | HT-29 > 100 µM | HCT-116 97.3 µM | HOP-62 > 100 µM | A549 > 100 µM | OVCAR-3 > 100 µM | OVCAR-4 49.1 µM | OVCAR-8 > 100 µM | UACC-257 > 100 µM | HOP-92 > 100 µM | HL-60 > 100 µM | U-251 > 100 µM | 786-0 > 100 µM

Cc1nnc2c3c(-c4ccccc4)c(-c4ccccc4)oc3nc(N(C)C)n12
inactive: UACC-62 39.2 µM | CCRF-CEM 29.6 µM | SR 16.7 µM | MOLT-4 22.9 µM | HT-29 33.2 µM | HCT-116 24.8 µM | A549 37.2 µM | OVCAR-4 > 100 µM | OVCAR-8 78.9 µM | UACC-257 36.1 µM | HOP-92 > 100 µM | HL-60 22.4 µM | U-251 51.2 µM | UO-31 21.4 µM | TK-10 > 100 µM | SF-295 37.6 µM | 786-0 90.4 µM | SF-539 86.5 µM

COc1ccc(-c2cc(-c3ccc(Nc4ccnc5cc(C(F)(F)F)ccc45)cc3)[nH]c(=O)c2C#N)cc1
inactive: UACC-62 62.4 µM | CCRF-CEM > 24 µM | SR 9.51 µM | MOLT-4 > 100 µM | HT-29 > 33.2 µM | HCT-116 11.4 µM | A549 > 100 µM | OVCAR-3 > 100 µM | OVCAR-4 > 100 µM | OVCAR-8 > 77.4 µM | UACC-257 > 100 µM | HOP-92 49.7 µM | HL-60 > 100 µM | U-251 9.57 µM | TK-10 > 43.6 µM | SF-295 > 32.7 µM | 786-0 14.1 µM | SF-539 21 µM

Nc1c(-c2nc3ccccc3s2)c2ccc([N+](=O)[O-])cc2c(=O)n1-c1cccc(C(=O)O)c1
inactive: UACC-62 21 µM | CCRF-CEM 22.8 µM | SR 15.8 µM | HT-29 86.1 µM | HCT-116 21.2 µM | A549 34.9 µM | OVCAR-4 31.9 µM | OVCAR-8 27.7 µM | UACC-257 20.9 µM | HOP-92 24.2 µM | HL-60 18.1 µM | U-251 23.4 µM | UO-31 24.1 µM | TK-10 19 µM | 786-0 31.7 µM

Cc1cc2c(cc1O)CC[C@@H]1[C@@H]2CC[C@]2(C)[C@@H](O)CC[C@@H]12
inactive: CCRF-CEM 4.32 µM | SR 1.83 µM | MOLT-4 3.68 µM | HT-29 17.1 µM | A549 8.02 µM | OVCAR-4 12.4 µM | OVCAR-8 19.1 µM | UACC-257 15.3 µM | HOP-92 14.9 µM | HL-60 1.73 µM | U-251 5.73 µM | UO-31 14.8 µM | TK-10 24 µM | SF-295 6.08 µM | 786-0 14.6 µM

O=C(Cn1ccnc1[N+](=O)[O-])NCCO [ETANIDAZOLE]
inactive: UACC-62 > 100 µM | CCRF-CEM > 100 µM | SR > 100 µM | HT-29 > 100 µM | HCT-116 > 100 µM | HOP-62 > 100 µM | A549 > 100 µM | OVCAR-3 > 100 µM | OVCAR-4 > 100 µM | OVCAR-8 > 100 µM | UACC-257 56.5 µM | HOP-92 > 100 µM | HL-60 > 100 µM | U-251 > 100 µM | UO-31 > 100 µM | TK-10 > 100 µM | SF-295 > 100 µM | 786-0 > 100 µM | SF-539 > 100 µM
